A value given as a limit tells only on which side of the number the result lay.

The target of assay [1] is T1, human H1 (Homo sapiens, UniProt P35367).
T1 construct: host or cells: CHO-K1
Put plainly: In vitro histamine receptor cell-based assay (aequorin bioluminescence), H1 antagonism. The settings on record: CHO-K1 cells expressing human H1 and aequorin; histamine at EC80; read-out: H1 Antagonist EC50. The method, boiled down: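 Antagonism read as drop in aequorin luminescence after histamine challenge at a predetermined EC80, following 15 min compound pretreatment at room temperature. Cells: CHO-K1 carrying human H1, or H4 with Gα16; signal as AUC or amplitude, normalised to 10 μM diphenhydramine (H1) or JNJ7777120 (H4).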

In assay [2] the target is T2, human H4 (Homo sapiens, UniProt Q9H3N8).
T2 construct: host or cells: CHO-K1
T2 sequence (Q9H3N8 whole entry): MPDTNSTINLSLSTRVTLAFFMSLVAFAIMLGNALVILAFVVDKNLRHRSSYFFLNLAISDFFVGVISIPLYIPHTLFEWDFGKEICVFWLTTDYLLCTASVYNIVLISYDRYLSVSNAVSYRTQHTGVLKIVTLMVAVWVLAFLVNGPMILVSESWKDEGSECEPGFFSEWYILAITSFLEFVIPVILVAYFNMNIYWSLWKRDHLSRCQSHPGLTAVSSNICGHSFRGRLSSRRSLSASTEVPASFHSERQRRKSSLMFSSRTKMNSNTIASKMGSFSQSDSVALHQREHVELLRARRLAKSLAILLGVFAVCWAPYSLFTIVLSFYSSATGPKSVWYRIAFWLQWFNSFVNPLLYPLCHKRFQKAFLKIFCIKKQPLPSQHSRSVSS
The assay can be described thus: In vitro histamine receptor cell-based assay (aequorin bioluminescence), H4 antagonism. The settings on record: CHO-K1 cells expressing human H4, aequorin and Gα16; histamine at EC80; read-out: H4 Antagonist EC50. In outline: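 Antagonism read as loss of aequorin luminescence after histamine (EC80 final) addition, following 15 min room-temperature compound pretreatment of coelenterazine-h-loaded (5 μM) CHO-K1 cells co-expressing human H4 and Gα16. Efficacy given relative to 10 μM JNJ7777120; agonism excluded in separate no-histamine runs.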

Assay [3] has as its system Hartley VAF outbred guinea pigs. Put plainly: Allergic conjunctivitis in passively sensitized guinea pigs (conjunctival EPO activity). The settings on record: ≦0.1% qd topical, 1 hour prior to ovalbumin challenge; reduction of conjunctival EPO activity vs dexamethasone. Also on record: key: +: a ≦0.1% qd dose was statistically equivalent to dexamethasone with respect to reduction of EPO activity; −: the compound was statistically inferior to dexamethasone and not different than vehicle. It counts as in vivo. How it is done: (§1) Male Hartley VAF outbred guinea pigs were passively sensitized to ovalbumin by a single OD subconjunctival injection of undiluted guinea pig anti-ovalbumin antiserum 24 hours before OD topical challenge with 500 μg ovalbumin in saline. Control animals were injected with saline only and challenged with ovalbumin. To determine acute phase drug efficacy, 30 min after challenge animals were clinically scored by a masked observer for severity of signs of conjunctivitis based on a standard scale. Test compounds were administered topically 1 hour prior to challenge (QD protocol), or 1 hour prior to challenge and again 8 hours after challenge (BID protocol). Twenty-four hours after challenge, animals were euthanized and conjunctivae were harvested for determination of tissue eosinophil peroxidase (EPO) concentration as a marker of allergic inflammation. Homogenates of freshly collected tissues were prepared by shaking the tissues in 2 mL round-bottom tubes containing 0.5 mL of homogenization buffer (50 mM Tris HCl, pH 8.0, 6 mM KBr) and one 5-mm stainless steel bead on a Qiagen TissueLyser at 30 Hz for 5 min. Homogenates were frozen and thawed once, then centrifuged at 10,000 rpm for 5 min. EPO activity in supernatants was measured by reacting diluted homogenates with a solution of 6 mM o-phenylenediamine substrate and 8.8 mM H2O2 in homogenization buffer for 3 min. The reaction was stopped with 4M H2SO4 and absorbances were measured at […] on a spectrophotometric plate reader. Total EPO in samples was calculated from a standard curve of recombinant human EPO in each assay. EPO activity was normalized to total protein concentration (Pierce BCA assay) in supernatants. Background EPO activity was determined from the unsensitized, antigen-challenged control group. Percent inhibition was calculated from the sensitized, antigen-challenged, vehicle-treated control group in each experiment. Ovalbumin-injected animals dosed topically with 0.1% w/v dexamethasone (dex) served as positive control. Groups were compared by ANOVA with Dunnett's or Tukey's post-hoc tests where appropriate with significance assigned at the 95% confidence level.
(§2) The table below summarizes the results.

For assay [4] the test system is unchanged. The description is as above. It counts as in vivo. The arrangement: key: +: a 0.01% bid dose was statistically equivalent to dexamethasone with respect to reduction of EPO activity; −: the compound was statistically inferior to dexamethasone and not different than vehicle. The settings on record: reduction of conjunctival EPO activity vs dexamethasone; for BID activity: 0.01% bid topical, 1 hour prior to and 8 hours after ovalbumin challenge; for QD activity: ≦0.1% qd topical, 1 hour prior to ovalbumin challenge. Here is the method:
as §1, §2

T1 sequence (P35367 whole entry): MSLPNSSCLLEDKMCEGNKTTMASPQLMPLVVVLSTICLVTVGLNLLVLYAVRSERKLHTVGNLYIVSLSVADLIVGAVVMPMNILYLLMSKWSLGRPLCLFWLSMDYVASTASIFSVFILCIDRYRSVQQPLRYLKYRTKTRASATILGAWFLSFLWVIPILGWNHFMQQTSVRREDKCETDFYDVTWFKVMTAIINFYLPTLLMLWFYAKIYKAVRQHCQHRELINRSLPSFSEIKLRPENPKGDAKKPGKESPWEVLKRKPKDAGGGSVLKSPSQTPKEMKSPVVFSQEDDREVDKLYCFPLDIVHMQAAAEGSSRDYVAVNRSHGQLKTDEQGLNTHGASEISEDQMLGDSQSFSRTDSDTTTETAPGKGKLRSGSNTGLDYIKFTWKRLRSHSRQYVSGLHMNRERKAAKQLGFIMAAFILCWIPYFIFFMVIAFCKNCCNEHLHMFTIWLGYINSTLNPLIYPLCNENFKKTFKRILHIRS

For the compound `Clc1ccc2nc(N3CCNCC3)c3nnnn3c2c1` [Example 19, 8-Chloro-4-(piperazin-1-yl)tetrazolo[1,5-a]quinoxaline], the EC50 in assay [1] was > 10 µM; in assay [2], < 10 µM. The QD activity entry in assay [3] is given as “+”. Also, the BID activity entry in assay [4] is given as “+”.

`FC(F)(F)c1ccc2nc(N3CCNCC3)c3nncn3c2c1` [Example 24, 4-(piperazin-1-yl)-8-(trifluoromethyl)-[1,2,4]triazolo[4,3-a]quinoxaline]: the EC50 in assay [1] was > 10 µM; in assay [2] it was < 10 µM. For the same compound, the QD activity result in assay [3] is on record as “+”.

Turning to `Cl.FC(F)(F)c1ccc2nc(N3CCNCC3)c3nnnn3c2c1` [Example 29, 4-(piperazin-1-yl)-8-(trifluoromethyl)tetrazolo[1,5-a]quinoxaline hydrochloride], the EC50 in assay [1] is > 10 µM; in assay [2] it was < 10 µM. Moreover, in assay [3], the QD activity entry is listed as “+”. The BID activity result in assay [4] is reported as “+”.

For `FC(F)(F)c1cc2c(cc1Cl)nc(N1CCNCC1)c1nncn12` [Example 45, 7-Chloro-4-(piperazin-1-yl)-8-(trifluoromethyl)-[1,2,4]triazolo[4,3-a]quinoxaline], the EC50 is > 10 µM in assay [1] and < 10 µM in assay [2]. The QD activity result in assay [3] is recorded as “+”.

Regarding `Cc1nc2c3cc(C(F)(F)F)c(F)cc3nc(N3CCN(C)CC3)n2n1.Cl` [Example 124, 8-fluoro-2-methyl-5-(4-methylpiperazin-1-yl)-9-(trifluoromethyl)-[1,2,4]triazolo[1,5-c]quinazoline hydrochloride], the EC50 in assay [1] was > 10 µM; in assay [2] it was < 10 µM. The QD activity entry in assay [4] is listed as “−”.

On to `Cc1nc2c3cc(C(F)(F)F)c(F)cc3nc(N3CCNCC3)n2n1.Cl` [Example 125, 8-fluoro-2-methyl-5-(piperazin-1-yl)-9-(trifluoromethyl)-[1,2,4]triazolo[1,5-c]quinazoline hydrochloride], for which the EC50 in assay [1] was > 10 µM; in assay [2] it was < 10 µM. For the same compound, the QD activity entry in assay [4] is “−”.

As for `Cc1nc2c3c(F)c(C(F)(F)F)ccc3nc(N3CCN(C)CC3)n2n1.Cl` [Example 126, 10-fluoro-2-methyl-5-(4-methylpiperazin-1-yl)-9-(trifluoromethyl)-[1,2,4]triazolo[1,5-c]quinazoline hydrochloride], the EC50 in assay [1] is > 10 µM; in assay [2], < 10 µM. The QD activity result in assay [3] was “+”.

For the compound `Cc1nc2c3cc(C(F)(F)F)cc(F)c3nc(N3CCN(C)CC3)n2n1.Cl` [Example 127, 7-fluoro-2-methyl-5-(4-methylpiperazin-1-yl)-9-(trifluoromethyl)-[1,2,4]triazolo[1,5-c]quinazoline hydrochloride], the EC50 in assay [1] was > 10 µM; in assay [2] it was < 10 µM. Further, the QD activity entry in assay [3] was “+”.

As to `Cc1nc2c3cc(F)c(C(F)(F)F)cc3nc(N3CCN(C)CC3)n2n1.Cl` [Example 129, 9-fluoro-2-methyl-5-(4-methylpiperazin-1-yl)-8-(trifluoromethyl)-[1,2,4]triazolo[1,5-c]quinazoline hydrochloride], the values for the EC50 in assay [1] and in assay [2] were > 10 µM and < 10 µM, respectively. In assay [4], the QD activity entry is reported as “−”.

As to `Cc1nc2c3cc(OC(F)(F)F)ccc3nc(N3CCN(C)CC3)n2n1.Cl` [Example 133, 2-methyl-5-(4-methylpiperazin-1-yl)-9-(trifluoromethoxy)-[1,2,4]triazolo[1,5-c]quinazoline hydrochloride], the EC50 in assay [1] was > 10 µM; in assay [2], < 10 µM. Also, in assay [4], the QD activity entry is given as “−”.

As to `Cc1nc2c3cc(Br)ccc3nc(N3CCNCC3)n2n1` [Example 136, 9-bromo-2-methyl-5-(piperazin-1-yl)-[1,2,4]triazolo[1,5-c]quinazoline], the EC50 in assay [1] was > 10 µM; in assay [2] it was < 10 µM. For the same compound, the QD activity entry in assay [4] is reported as “−”.

Turning to `Cc1nc2c(N3CCN(C)CC3)nc3ccc(Cl)cc3c2o1` [Example 143, 8-chloro-2-methyl-4-(4-methylpiperazin-1-yl)oxazolo[4,5-c]quinoline], the EC50 in assay [1] and in assay [2] was < 10 µM in each case. Further, the BID activity entry in assay [4] is on record as “+”. Besides, the QD activity entry in assay [4] is listed as “−”.

As to `Cc1nc2c(N3CCN(C)CC3)nc3cc(F)c(F)cc3c2o1` [Example 145, 7,8-difluoro-2-methyl-4-(4-methylpiperazin-1-yl)oxazolo[4,5-c]quinoline], the concentration giving a half-maximal response (EC50) is > 10 µM in assay [1] and < 10 µM in assay [2]. The QD activity entry in assay [4] is given as “−”.

Regarding `CN1CCN(c2nc3ccc(Cl)cc3c3cn(C)nc23)CC1` [Example 150, 8-Chloro-2-methyl-4-(4-methylpiperazin-1-yl)-2H-pyrazolo[3,4-c]quinoline], the EC50 is > 10 µM in assay [1] and < 10 µM in assay [2]. Moreover, the BID activity entry in assay [4] is given as “−”.

Consider `Clc1ccc2nc(N3CCNCC3)c3n[nH]cc3c2c1` [Example 153, 8-Chloro-4-(piperazin-1-yl)-2H-pyrazolo[3,4-c]quinoline], for which the EC50 in assay [1] and in assay [2] was < 10 µM throughout. In addition, the BID activity entry in assay [4] was “−”.

Regarding `CN1CCN(c2nc3ccc(Cl)cc3c3[nH]cnc23)CC1` [Example 160, 8-Chloro-4-(4-methylpiperazin-1-yl)-1H-imidazo[4,5-c]quinoline], the EC50 was > 10 µM in assay [1] and < 10 µM in assay [2]. In addition, the BID activity result in assay [4] is listed as “−”.

Turning to `Clc1ccc2nc(N3CCNCC3)c3nc[nH]c3c2c1` [Example 161, 8-Chloro-4-(piperazin-1-yl)-1H-imidazo[4,5-c]quinoline], the EC50 in assay [1] and in assay [2] was < 10 µM in each case. In assay [4], the BID activity result is “+”.

For the compound `Cc1nc2c(N3CCN(C)CC3)nc3ccc(Cl)cc3n2n1` [Example 165, 8-chloro-2-methyl-4-(4-methylpiperazin-1-yl)-[1,2,4]triazolo[1,5-a]quinoxaline], the EC50 in assay [1] and in assay [2] was < 10 µM each time. Besides, in assay [3], the QD activity result was “+”. The BID activity result in assay [4] is recorded as “+”.

Take `CN1CCN(c2nc3ccc(Cl)cc3c3conc23)CC1` [Example 166, 8-Chloro-4-(4-methylpiperazin-1-yl)isoxazolo[3,4-c]quinoline]: the concentration giving a half-maximal response (EC50) in assay [1] is > 10 µM; in assay [2], < 10 µM. In addition, the QD activity entry in assay [3] is given as “+”. Moreover, the BID activity entry in assay [4] was “+”.

The values above are taken from patent publication US20120065187A1 (ALCON RESEARCH, LTD, priority 2008, published 2012).
